Literature values, collected in patent publication US20140288899A1, “C[…] OF BINDING FREE ENERGY, C[…] OF BINDING FREE ENERGY, PROGRAM, SCREENING METHOD OF COMPOUND” (FUJITSU LIMITED, priority 2013, published 2014).

Assays:
FK506 BINDING PROTEIN [1] = target: T1, FK506 BINDING PROTEIN (Homo sapiens, UniProt P62942); conditions: experimental value disclosed in Holt et al., J. Am. Chem. Soc. 1993, 115, 9925-9938
FK506 BINDING PROTEIN [2] = target: T1, FK506 BINDING PROTEIN; conditions: calculation value of Wang et al., Biophysical Journal Vol. 91, 2798-2814; restriction with a spring

T1 sequence (P62942 whole entry): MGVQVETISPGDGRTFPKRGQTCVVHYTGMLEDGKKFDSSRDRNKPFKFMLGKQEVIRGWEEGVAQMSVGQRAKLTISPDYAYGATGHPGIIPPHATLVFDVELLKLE

## CCC(C)(C)C(=O)C(=O)N1CCCC[C@H]1C(=O)O[C@H](CCc1ccccc1)c1ccccc1 [1fkg, 1,3-DIPHENYL-1-PROPYL-1-(3,3-DIMETHYL-1,2-DIOXYPENTYL)-2-PIPERIDINE CARBOXYLATE]
FK506 BINDING PROTEIN [1]
  binding free energy, experimental value: -10.9 kcal/mol
FK506 BINDING PROTEIN [2]
  binding free energy, calculation result of Comparative Example: -10.3 kcal/mol
